Values joined by “and” are separate entries in the source; they are usually repeats but may differ in a detail not shown here. Equal values may be shown once. Read-outs that look alike come from different tables or passages of the source. Marks after values point to notes of the source that are not given here.
What was measured:
[1] = tested on: geonol malodor (earthy/moss odor) perception; experiment: Sensory evaluation of geonol earthy/moss odor in iso-intense binary mixtures (glass jars); format: in vivo, human; settings: iso-intense binary mixture
Description: Sensory Evaluation: Five 16 oz glass jars containing either REF (geonol only), geonol only control, antagonist only, mixture of geonol and isointense antagonist, or mixture of geonol and low intensity antagonist were presented to the panelists (last four samples were randomized across panelists). The panelists were asked to familiarize themselves with the earthy/moss odor quality from the REF jar first, then rate the pleasantness, earthy/moss odor intensity and overall odor intensity of the next four samples on a 0-10 linear scale. The inter-stimulus interval between the samples was two minutes to avoid adaptation.

[2] = tested on: geonol earthy/moss odor perception; experiment: Human sensory performance of test compounds with and without geonol; format: in vivo; settings: for % Earthy/Moss Odor: Test Compound Only
In short: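 Panelists first learned the earthy/moss quality from a geonol-only reference, then rated pleasantness, earthy/moss intensity and overall intensity of geonol alone, antagonist alone, and geonol mixed with isointense or low-intensity antagonist on a 0-10 linear scale. Samples were presented in glass jars in randomized order with two-minute intervals.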

[3] = tested on: 1-octen-3-ol mushroom/earthy/fungal odor perception; experiment: Human sensory performance of test compounds with and without 1-octen-3-ol; format: in vivo
[4] = target: 1-octen-3-ol receptors OR2W1, Olfr93, Olfr120, Olfr398; experiment: Antagonists of 1-octen-3-ol receptors (Example 11); format: cell-based, mouse and human; design: Inhibition(%): concentration or dose not given beside the values; settings: Table 19
Olfr743 = Olfr743 (Mus musculus, UniProt L7N1Y2); experiment: Indole antagonist dose-response, cAMP HTRF in HEK293T, vs indole EC80; format: cell-based; settings: Table 23
Sequence of Olfr743 (L7N1Y2 entry or part of it): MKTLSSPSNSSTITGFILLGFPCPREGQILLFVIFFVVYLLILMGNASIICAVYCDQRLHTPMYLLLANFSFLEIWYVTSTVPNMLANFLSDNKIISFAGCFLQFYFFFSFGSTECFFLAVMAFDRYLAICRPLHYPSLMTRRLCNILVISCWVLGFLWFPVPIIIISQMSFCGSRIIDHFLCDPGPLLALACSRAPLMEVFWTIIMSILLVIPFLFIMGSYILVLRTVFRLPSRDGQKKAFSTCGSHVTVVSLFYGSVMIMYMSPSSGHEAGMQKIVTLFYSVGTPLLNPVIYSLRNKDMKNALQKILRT
Experimental: (§1) Functional dose-response experiments were performed to identify compounds capable of antagonizing indole-sensitive receptors previously identified (U.S. Pat. No. 9,914,760 B2). Using a cell-based assay, mouse receptor Olfr738, Olfr739, Olfr740, Olfr741, 0fr742, Olfr743, Olfr744, Olfr746, Olfr748 and Olfr749 were tested in an HEK293T cell line wherein the endogenous RTP1 gene has been activated and the odorant receptor chaperone was expressed (described in WO2016201153A1). The receptor genes were tagged with a Flag-Rho tag combination. Receptor genes were co-transfected with the canonical olfactory human G-protein alpha subunit Golf gene. Co-expression of the human Golf activates the Gs transduction pathway that leads to an internal cAMP increase upon binding to the appropriate ligand (indole here). Odorant-induced activity was detected by measuring the cAMP increase in the cytosol using an HTRF based kit (CisBio, cAMP dynamic 2 kit, cat. 62AM4PEJ). The receptors were exposed to binary mixtures of increasing concentrations of the test compounds in the presence of a potent activation concentration of indole (EC80) for each receptor. […] All the compounds listed decreased the indole induced activity of at least one receptor.

Olfr744 = target: T1, Olfr744 (Mus musculus, UniProt Q7TRM0); experiment: as above; format: cell-based; settings: Table 23
T1 construct: Flag; Rho tag; expressed in transfected cells
T1 sequence (Q7TRM0 1-323): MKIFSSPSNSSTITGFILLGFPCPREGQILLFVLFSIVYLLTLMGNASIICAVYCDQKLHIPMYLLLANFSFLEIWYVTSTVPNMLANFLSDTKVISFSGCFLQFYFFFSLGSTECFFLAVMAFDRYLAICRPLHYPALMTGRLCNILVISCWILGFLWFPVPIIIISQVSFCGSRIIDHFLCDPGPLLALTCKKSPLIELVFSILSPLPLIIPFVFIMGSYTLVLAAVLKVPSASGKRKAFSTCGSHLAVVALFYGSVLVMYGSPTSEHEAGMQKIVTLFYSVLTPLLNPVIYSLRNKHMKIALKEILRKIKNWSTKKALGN
Experimental: as §1

Olfr749 = target: T2, Olfr749 (Mus musculus, UniProt E9Q438); experiment: as above; format: cell-based; settings: Table 23
T2 construct: Flag; Rho tag; expressed in transfected cells
T2 sequence (E9Q438 1-313): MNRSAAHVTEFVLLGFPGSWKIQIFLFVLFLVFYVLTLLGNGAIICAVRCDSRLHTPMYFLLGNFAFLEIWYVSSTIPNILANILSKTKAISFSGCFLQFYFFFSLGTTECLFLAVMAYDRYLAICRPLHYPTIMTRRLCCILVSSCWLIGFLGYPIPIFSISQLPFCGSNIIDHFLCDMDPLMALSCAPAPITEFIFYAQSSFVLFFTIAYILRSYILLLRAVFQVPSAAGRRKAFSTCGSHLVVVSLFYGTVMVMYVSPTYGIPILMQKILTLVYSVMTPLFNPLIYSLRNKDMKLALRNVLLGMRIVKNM
Experimental: as §1

[5] = tested on: OR11A1, or the OR2M3 olfactory receptor; experiment: Geonol olfactory receptor antagonist cell-based screening, inhibitory dose-response vs geonol EC80; design: species or system human; settings: geonol at EC80; read-out: IC50
Olfr738 = Olfr738 (Mus musculus, UniProt L7N1X7); experiment: Indole antagonist dose-response, cAMP HTRF in HEK293T, vs indole EC80; format: cell-based; settings: vs indole EC80; for IC50: read-out: Olfr738 IC50
Sequence of Olfr738 (L7N1X7 entry or part of it): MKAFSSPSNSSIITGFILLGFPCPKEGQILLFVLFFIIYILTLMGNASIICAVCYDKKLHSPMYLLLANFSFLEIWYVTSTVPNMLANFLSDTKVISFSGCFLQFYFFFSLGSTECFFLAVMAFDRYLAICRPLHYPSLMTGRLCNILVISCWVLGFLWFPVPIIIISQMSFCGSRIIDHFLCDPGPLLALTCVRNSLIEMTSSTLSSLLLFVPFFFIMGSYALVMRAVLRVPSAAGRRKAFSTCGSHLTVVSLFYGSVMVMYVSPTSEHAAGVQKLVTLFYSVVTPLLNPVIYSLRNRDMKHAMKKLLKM
Experimental: (§2) Using a cell-based assay, mouse receptor Olfr738, Olfr739, Olfr740, Olfr741, 0fr742, Olfr743, Olfr744, Olfr746, Olfr748 and Olfr749 were tested in an HEK293T cell line wherein the endogenous RTP1 gene has been activated and the odorant receptor chaperone was expressed (described in WO2016201153A1). The receptor genes were tagged with a Flag-Rho tag combination. Receptor genes were co-transfected with the canonical olfactory human G-protein alpha subunit Golf gene. Co-expression of the human Golf activates the Gs transduction pathway that leads to an internal cAMP increase upon binding to the appropriate ligand (indole here). Odorant-induced activity was detected by measuring the cAMP increase in the cytosol using an HTRF based kit (CisBio, cAMP dynamic 2 kit, cat. 62AM4PEJ).

Olfr740 = Olfr740 (Mus musculus, UniProt E9PV79); experiment: as above; format: cell-based; settings: vs indole EC80; for IC50: read-out: Olfr740 IC50
Sequence of Olfr740 (E9PV79 entry or part of it): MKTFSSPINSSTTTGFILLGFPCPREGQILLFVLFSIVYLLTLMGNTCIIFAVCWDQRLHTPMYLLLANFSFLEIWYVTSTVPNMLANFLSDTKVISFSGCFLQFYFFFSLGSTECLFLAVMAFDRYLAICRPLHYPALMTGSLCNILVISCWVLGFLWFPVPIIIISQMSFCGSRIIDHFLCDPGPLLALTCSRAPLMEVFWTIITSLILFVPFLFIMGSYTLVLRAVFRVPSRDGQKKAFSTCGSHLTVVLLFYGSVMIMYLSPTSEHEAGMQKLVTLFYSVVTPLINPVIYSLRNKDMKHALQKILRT
Experimental: as §2

Olfr741 = Olfr741 (Mus musculus, UniProt L7N1Y5); experiment: as above; format: cell-based; settings: Table 22, first listing
Sequence of Olfr741 (L7N1Y5 entry or part of it): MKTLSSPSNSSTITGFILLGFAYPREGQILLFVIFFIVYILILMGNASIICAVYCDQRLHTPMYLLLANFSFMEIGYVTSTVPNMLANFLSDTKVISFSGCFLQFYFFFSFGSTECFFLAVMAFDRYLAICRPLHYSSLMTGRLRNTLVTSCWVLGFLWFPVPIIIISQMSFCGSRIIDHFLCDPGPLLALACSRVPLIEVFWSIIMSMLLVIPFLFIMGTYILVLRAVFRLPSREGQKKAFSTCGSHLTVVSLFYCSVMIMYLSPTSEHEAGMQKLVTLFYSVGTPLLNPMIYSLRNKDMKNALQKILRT
Experimental: as §2

Olfr742 = Olfr742 (Mus musculus, UniProt A2RTP5); experiment: as above; format: cell-based; settings: vs indole EC80; for IC50: read-out: Olfr742 IC50; for Emax: HEK-293T, read-out: Olfr742 % Inhibition
Sequence of Olfr742 (A2RTP5 entry or part of it): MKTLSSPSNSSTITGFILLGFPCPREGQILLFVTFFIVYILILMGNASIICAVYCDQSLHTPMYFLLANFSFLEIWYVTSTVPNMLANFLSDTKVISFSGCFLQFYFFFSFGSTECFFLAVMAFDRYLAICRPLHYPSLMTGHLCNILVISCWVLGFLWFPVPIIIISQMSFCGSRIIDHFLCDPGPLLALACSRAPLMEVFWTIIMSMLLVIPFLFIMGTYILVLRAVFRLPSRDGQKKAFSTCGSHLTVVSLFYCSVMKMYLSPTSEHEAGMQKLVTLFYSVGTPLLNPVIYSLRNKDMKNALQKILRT
Experimental: as §2

Olfr739 = Olfr739 (Mus musculus, UniProt E9Q1P0); experiment: as above; format: cell-based
Sequence of Olfr739 (E9Q1P0 entry or part of it): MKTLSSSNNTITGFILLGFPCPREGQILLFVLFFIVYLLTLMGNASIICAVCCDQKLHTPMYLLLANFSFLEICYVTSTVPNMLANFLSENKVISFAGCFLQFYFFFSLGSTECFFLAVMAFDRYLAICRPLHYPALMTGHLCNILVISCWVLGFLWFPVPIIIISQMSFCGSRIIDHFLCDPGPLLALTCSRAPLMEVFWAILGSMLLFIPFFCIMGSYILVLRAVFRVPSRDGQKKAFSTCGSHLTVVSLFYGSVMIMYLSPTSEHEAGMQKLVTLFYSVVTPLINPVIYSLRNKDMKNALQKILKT
Experimental: as §1

[6] = target: T3, OR51E1 olfactory receptor (Homo sapiens, UniProt Q8TCB6); experiment: Butyric acid olfactory receptor antagonist cell-based dose-response vs butyric acid EC80; settings: butyric acid at EC80; Table 5
T3 construct: expressed in transfected cells
T3 sequence (Q8TCB6 1-318): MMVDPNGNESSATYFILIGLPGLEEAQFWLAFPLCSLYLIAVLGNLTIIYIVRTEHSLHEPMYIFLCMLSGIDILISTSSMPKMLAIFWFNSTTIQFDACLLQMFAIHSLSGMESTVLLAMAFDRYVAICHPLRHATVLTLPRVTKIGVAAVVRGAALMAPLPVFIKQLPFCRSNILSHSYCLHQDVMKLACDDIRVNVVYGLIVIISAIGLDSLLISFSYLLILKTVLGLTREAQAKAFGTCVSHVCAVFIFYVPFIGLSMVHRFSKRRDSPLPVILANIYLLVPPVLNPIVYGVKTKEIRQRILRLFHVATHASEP

[7] = Low Dilution Test Compound + Geonol (0.1%)
[8] = Medium Dilution Test Compound + Geonol (0.1%)
[9] = Table 22, second listing of the same compounds
[10] = Table 22, first listing (r7-r45)

Compound	% Remaining in human sensory tests [1]	% Earthy/Moss Odor Remaining [2, 7] [%]	% Earthy/Moss Odor Remaining [2, 8] [%]	% Earthy/Moss Odor [2] [%]	IC50 (Olfr743)	Olfr743 % Inhibition (Olfr743)	IC50 (Olfr744)	Olfr744 % Inhibition (Olfr744)	IC50 (Olfr749)	Olfr738 % Inhibition (Olfr738; Table 22, first listing) [%]	IC50 (Olfr741) [µM]	Olfr741 % Inhibition (Olfr741) [%]	other results
4-(2,6,6-trimethylcyclohexen-1-yl)but-3-en-2-one; 4-(2,6,6-trimethylcyclohex-2-en-1-yl)but-3-en-2-one	59* %	73.40	70.30	27.10	275 µM and 159 µM	114.78% and 112.64%	125 µM and 159 µM	78.23% and 77.99%	75.8 µM and 76 µM	–	–	–	% Mushroom/Earthy/Fungal Odor Remaining ([3]; Low Dilution Test Compound + 1-octen-3-ol (0.15%)): 94.80%; % Mushroom/Earthy/Fungal Odor Remaining ([3]; Medium Dilution Test Compound + 1-octen-3-ol (0.15%)): 73.90%; % Mushroom/Earthy/Fungal Odor ([3]; Test Compound Only): 20.30%; IC50 [4]: 146 µM; Inhibition(%) [4]: 79%
6(8)-ISOPROPYLQUINOLINE [isopropyl quinoline]	110%	99.60	104.70	54.70	119 µM	39.62%	102 µM	116.59%	–	20.66	91.6	54.55	IC50 [5]: 400 µM; IC50 (Olfr738; Table 22, first listing): 120 µM; Olfr738 % Inhibition (Olfr738; [9]): 39.62%; Olfr740 % Inhibition (Olfr740; Table 22, first listing): 148.06%; IC50 (Olfr740; Table 22, first listing): 40.9 µM; Olfr742 % Inhibition (Olfr742; Table 22, first listing): 72.34%; IC50 (Olfr742; Table 22, first listing): 86.6 µM; IC50 (Olfr739; Table 22, first listing): 61.3 µM; Olfr739 % Inhibition (Olfr739; Table 22, first listing): 74.96%; Olfr739 % Inhibition (Olfr739; [9]): 116.59%
C/C=C/C(=O)C1C(C)=CCCC1(C)C (racemic) [(+−)-(2E)-1-(2,6,6-trimethyl-2-cyclohexen-1-yl)-2-buten-1-one]	–	–	–	–	–	–	–	–	156 µM	12.19	110	75.65	IC50 [6]: 50.5 µM; IC50 (Olfr738; [10]): 99.8 µM; Emax (Olfr740; HEK-293T, Table 22, first listing, read-out: Olfr740 % Inhibition): 115%; IC50 (Olfr740; [10]): 137 µM; Emax (Olfr742; Table 22, first listing): 113%; Emax (Olfr742; [9]): 47.9%; IC50 (Olfr742; [10]): 95.4 µM; Olfr749 % Inhibition (Olfr749): 47.86%

Source: patent US20230233425A1, “USE OF VOLATILE COMPOSITIONS TO LIMIT OR ELIMINATE THE PERCEPTION OF MALODOR” (Firmenich SA, priority 2017, published 2023)
